Measurements as given in the SangsterLogP compilation.

First: C=CC#Cc1ccc(-c2cccs2)s1
Second: c1csc(-c2ccc(-c3cccs3)s2)c1
The logP of the first is lower: 5.15 for the first, 5.57 for the second.

Going from `C/C=C/C#CC#CC#C/C=C/C(Cl)CO` (stereo unspecified) to `C/C=C/C#CC#C/C=C/C(=O)OC`, the logP falls from 3.91 to 2.45.

Compared with `C/C=C/C#CC#Cc1ccccc1`, `O=C/C=C/C#CC#Cc1ccccc1` is lower in logP: 4.76 for the first, 3.09 for the second.

Compared with `CC#CC#CC#Cc1ccccc1`, `OC/C=C/C#CC#Cc1ccccc1` is lower in logP: 4.91 for the first, 2.48 for the second.

Compared with `CC=CC#CC=C1C=CC(=O)O1`, `CC#CC#CC#C/C=C\C(=O)OC` is higher in logP: 2.09 for the first, 2.42 for the second.

For `CC#CC#Cc1ccc(C#CC(Cl)COC(C)=O)s1` (stereo unspecified), the logP was 4.6.
